“Also recorded” adds a separate entry of the source. Where a name gives a salt, the structure may show the parent alone.
Experiments:
[1] = system: MCF-7, T47D, and MDA-MB-231 breast cancer cells; assay: XTT assay in breast cancer cells; format: cell-based; conditions: 10 μM
Description: (§1) In order to evaluate the potential therapeutic activity of the compound, tests for the biological activity of compound I were performed. The compound is non-toxic to MCF-7, T47D, and MDA-MB-231 breast cancer cells as estimated by XTT assay at 10 μM. To determine the effects of compound I on invasion by breast cancer cell lines, a matrigel invasion assay was used. The levels of phosphorylated IκBα were confirmed in TPA treated ER-positive (MCF-7 and T47D) and ER-negative (MDA-MB-231) breast cancer cell lines and compared the levels to those after pretreatment with compound I. Although induced levels of phosphorylated IκBα varied with the cell line, IκBα phosphorylation was eliminated by compound I treatment in all three breast cancer cell lines. Compound I also produced no effect on the estrogen receptor activity in the ER-positive breast cancer cells using ERE promoter luciferase reporter assay. Invasion capacity of breast cancer cells was increased by TPA stimulation compared to DMSO treated vehicle control. […] Following anchorage-independent colony induction in TPA-treated cells without or with compound I, colonies were lysed and measured with CyQuant GR Dye to detect DNA by fluorescence plate reader as a measure of colony count. Total transformed colony numbers were calculated from RFU and cell dose curve of JB6 cells. […]

[2] = system: NF-1; assay: EMSA of NF-1 DNA binding, HEK293 nuclear fractions; format: cell-based; conditions: 17 μM
Description: EMSA was performed with the nuclear fraction of HEK293 cell using LightShift Chemiluminescent EMSA Kit (Pierce Biotechnology, Rockford, Ill.) according to the manufacture's instruction. Oligonucleotides for NFκB, NF-1, and AP-1 were labeled with biotin by Biotin 3′ End DNA labeling Kit (Pierce Biotechnology, Rockford, Ill.). The quantified 15 μg of nuclear extracts were incubated for 20 mins with 1 μg/μl Poly (dI.dC), biotin end-label target nucleotides in 20 μl binding buffer DNA-protein complexes were fractionated on 6% a polyacrylamide gel and transferred to a nylon membrane. The membranes were processed to detect biotin-label DNA by cross-linking, blocking, and detection incubations. Results were obtained by X-ray film exposure for 10 sec and development. The target sequences of oligonucleotides for NFκB, NF-1, and AP-1 are as follows;
To determine whether the effect of compound I on nuclear translocation of NFκB leads to inhibited binding of NFκB proteins to DNA, EMSA in HEK293 cells was performed. […] TPA-induced binding complex was attenuated by pretreatment with compound I in a dose-dependent manner (lanes 5-9). This binding inhibition parallels the inhibition of luciferase reporter transactivation and inhibition of nuclear translocation of NFκB proteins. […]

[3] = system: IκBα; assay: Phosphorylated IκBα levels in TPA treated breast cancer cell lines; format: cell-based; conditions: TPA treated MCF-7, T47D, MDA-MB-231
Description: as §1

[4] = system: MCF-7, T47D, and MDA-MB-231 breast cancer cell lines; assay: Matrigel invasion assay; format: cell-based
Description: Breast cancer cell lines, MCF-7, T47D, and MDA-MB-231 were used to measure the effect of compound I on TPA-induced invasion activity using Matrigel Invasion Chamber (BD Bioscience, San Jose, Calif.) according to the manufacturer's protocol. Matrigel-coated chambers containing an 8 μm pore size filter were fitted into a 24-well tissue culture plate. Briefly, breast cancer cells (1×10^5 cells/ml) of each cell line were seeded into […] Matrigel-coated chambers with DMSO, TPA, or TPA plus compound I conditions and incubated for 24 hrs. The media wells for each plate contained only standard growth medium. After 24 hrs the non-invading cells were removed from the upper side of the chamber by cotton tipped applicators. The invaded cells on the bottom side were stained using Diff-Quik staining (Dade Behring, Deerfield, Ill.) and photographed. Three independent results were very similar.
In order to evaluate the potential therapeutic activity of the compound, tests for the biological activity of compound I were performed. […] Following anchorage-independent colony induction in TPA-treated cells without or with compound I, colonies were lysed and measured with CyQuant GR Dye to detect DNA by fluorescence plate reader as a measure of colony count. Total transformed colony numbers were calculated from RFU and cell dose curve of JB6 cells. […]

[5] = system: IL-6 mRNA; assay: Quantitative RT-PCR of endogenous IL-6 mRNA in HEK293 cells; format: cell-based, human; conditions: concentrations as low as 2.1 μM, 1 hour pretreatment, TPA 18 hours, normalized by GAPDH
Description: Total RNA was isolated from HEK293 cells after pretreatment with varying compound I and/or TPA stimulation by ToTALLY RNA kit (Ambion, Austin, Tex.), and first-strand cDNA was synthesized from 1 μg of the isolated total RNA using the SuperScript III First-Strand Synthesis System (Invitrogen, Carlsbad, Calif.) with random hexamers, oligonucleotide primers. cDNA was purified by QIAquick PCR purification kit (Qiagen, Valencia, Calif.) according to the manufacturer's manual. Real-time PCR was performed with iQ SYBR Green Supermix (Bio-Rad, Hercules, Calif.) by iQ5 Multicolor RT-PCR detection system (Bio-Rad, Hercules, Calif.). Primers for endogenous human IL-6 were designed by Primer 3 program (http://frodo.wi.mit.edu/). Human glyceraldehyde-3-phosphate dehydrogenase (hGAPDH) was used as a control. The sequences for RT-PCR are as follows:
Inhibition of NFκB transactivation would be expected to result in suppressed expression of genes whose transcription depends on NFκB. Quantitative RT-PCR was used to measure endogenous levels of IL-6 mRNA, transcribed from a gene whose transcription depends on NFκB but not AP-1. […] Plasmids expressing luciferase reporters were driven by promoters for COX-2, uPAR (urokinase-type plasminogen activator receptor), or VEGF. […]

[6] = system: NCI-60 panel of human cancer cell lines; assay: NCI-60 cancer screen, growth inhibition; format: cell-based
Source text: Thus in addition to inhibiting tumorigenesis (transformation) and tumor progression (invasion), compound I may have potential for tumor growth inhibition in some cancer sites.

Cc1cc(N)ccc1N=Nc1ccc(S(=O)(=O)CCOS(=O)(=O)O)cc1 [compound I, 2-(4-((4-amino-2-methylphenyl)diazenyl)phenylsulfonyl)ethyl hydrogen sulfate]
Toxicity estimated by XTT assay [1]: non-toxic | NF-1 DNA binding activity [2]: little or no effect | IκBα phosphorylation in breast cancer cell lines [3]: eliminated | Basal invasive activity ([4]; MBA-MB-231 cells): completely inhibited | TPA-increased invasion ([4]; three breast cancer cell lines, 24 hrs): completely inhibited; also recorded: inhibits | Part of TPA induction of IL-6 mRNA prevented [5]: more than half | inhibition at 1 µM ([6]; Homo sapiens, compound at 1 μM, read-out: Growth inhibition of leukemia lines): > 50% | Killing of leukemia lines ([6]; concentrations up to 100 μM): does not kill | Sensitivity of leukemia and breast cancer cell lines versus lines from other cancer sites ([6]; growth inhibition): more sensitive | Concentration at which most of the NCI-60 lines showed growth inhibition ([6]; most of the NCI-60 human cancer cell lines): greater than 10 μM

Source: US8729053B2, “Nuclear factor kappa B pathway inhibitor composition and use of same” (The United States of America, as represented by the …, priority 2008, dated 2014)
